US20150038543A1, “ANTI-GLYCATION PROPERTIES OF OXINDOLE DERIVATIVES” (priority 2013, published 2015)
Values joined by “and” are separate entries in the source; they are usually repeats but may differ in a detail not shown here. Identical values can stand only once. Like-named read-outs stand apart in the source and are kept apart here.

Target: T1, BSA-MG glycation model (bovine serum albumin + methylglyoxal) (Bos taurus, UniProt P02769)
T1 construct: purchased Merck Marker Pvt; Ltd. (Germany)
Test: in vitro BSA-MG glycation model (fluorescence of AGE formation)
Assay type: biochemical
Settings: for activity against the protein glycation (in words): in vitro protein glycation, compared with standard rutin
Method: Bovine serum albumin (BSA) was purchased from Merck Marker Pvt. Ltd. (Germany), rutin and methylglyoxal (MG) (40% aqueous solution) were from Sigma Aldrich (Japan), sodium dihydrogen phosphate (NaH2PO4), disodium hydrogen phosphate (Na2HPO4) and sodium azide (NaN3) were purchased from Scharlau Chemie, S. A. (Spain), while dimethyl sulphoxide (DMSO) was purchased from Fischer Scientific (UK).
The total reaction volume of the assay was 200 μL, having final concentrations of 10 mg/mL BSA, 14 mM methylglyoxal, and 1 mM test compounds. 10 mg/mL solution of BSA and 14 mM methylglyoxal was prepared in 0.1 M phosphate buffer (pH 7.4), containing sodium azide (NaN3) (30 mM) as antimicrobial agent, while 1 mM solutions of test compounds were prepared in the DMSO. Assay was performed in triplicate. Each reaction mixtures were comprised of 50 μL BSA, 50 μL methylglyoxal, 20 μL test compound and 80 μL phosphate buffer (pH 7.4). The reaction mixture was incubated under aseptic conditions at 37° C. for 9 days.
After completion of nine days of incubation, each sample was examined for the development of specific fluorescence (excitation 330 nm; emission 420 nm) against blank on a microtitre plate reader (SpectraMax M2, Molecular Devices, CA, USA). The percent inhibition of AGE formation by the test sample versus control was calculated by using the following formula:
% Inhibition=(1−Fluorescence of test sample/Fluorescence of the control)×100
The IC50 (i.e. the concentration of test samples that inhibit the process of glycation to 50%) was determined by monitoring the effect of various concentrations (ranges from 1000-50 μM) of test compounds. The IC50 values were calculated by using EZ-FIT Enzyme Kinetics Program (Perrella Scientific Inc., Amherst, USA). The antiglycation potential of test compounds was compared with rutin, which was used as standard inhibitor.

[1] = 1 mM test compound, BSA 10 mg/mL, methylglyoxal 14 mM, 37° C., 9 days, read-out: % inhibition against BSA-MG glycation model
[2] = Antiglycation Activity IC50 ± SEM, BSA 10 mg/mL, methylglyoxal 14 mM, pH 7.4, 37° C., 9 days, test concentrations 1000-50 μM, triplicate, NA = not active
[3] = read-out: % inhibition against BSA-MG glycation model, 1 mM test compound, BSA 10 mg/mL, methylglyoxal 14 mM, 37° C., 9 days
[4] = BSA 10 mg/mL, methylglyoxal 14 mM, pH 7.4, 37° C., 9 days, test concentrations 1000-50 μM, triplicate, NA = not active, read-out: Antiglycation Activity IC50 ± SEM

T1 sequence (P02769 25-607): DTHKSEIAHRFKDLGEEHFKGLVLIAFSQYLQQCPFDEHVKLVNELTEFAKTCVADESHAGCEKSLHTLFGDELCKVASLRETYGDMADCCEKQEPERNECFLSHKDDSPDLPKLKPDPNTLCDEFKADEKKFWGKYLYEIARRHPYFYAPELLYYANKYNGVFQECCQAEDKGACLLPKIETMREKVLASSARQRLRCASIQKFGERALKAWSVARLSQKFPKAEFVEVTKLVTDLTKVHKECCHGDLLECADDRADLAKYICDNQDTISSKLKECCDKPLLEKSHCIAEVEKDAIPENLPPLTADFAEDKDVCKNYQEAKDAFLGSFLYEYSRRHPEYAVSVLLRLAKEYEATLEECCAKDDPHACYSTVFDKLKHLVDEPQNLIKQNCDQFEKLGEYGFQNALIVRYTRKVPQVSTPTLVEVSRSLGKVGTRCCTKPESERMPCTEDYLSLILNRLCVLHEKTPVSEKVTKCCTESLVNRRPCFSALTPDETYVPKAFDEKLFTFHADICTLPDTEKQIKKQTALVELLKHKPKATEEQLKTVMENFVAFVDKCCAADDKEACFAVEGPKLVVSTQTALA

SMILES | IC50 [2] | inhibition at 1000 µM [3] | also measured
O=C1Nc2ccccc2/C1=C\c1ccc([N+](=O)[O-])cc1 [Compound 15, 3-[(E)-(4-nitrophenyl)methylidene]-1,3-dihydro-2H-indol-2-one] |  |  | inhibition at 1000 µM [1]: < 50%
CCOc1ccc(/C=C2/C(=O)Nc3ccccc32)cc1 [Compound 6, 3-[(E)-(4-ethoxyphenyl)methylidene]-1,3-dihydro-2H-indol-2-one] |  |  | inhibition at 1000 µM [1]: < 50%
Cc1ccc(O)c(/C=C2/C(=O)Nc3ccccc32)c1 [Compound 13, 3-[(E)-(2-hydroxy-5-methylphenyl)methylidene]-1,3-dihydro-2H-indol-2-one] | 194 µM and 194 to 455 µM |  | activity against the protein glycation (in words): potent activity
O=C1Nc2ccccc2/C1=C\c1cccc([N+](=O)[O-])c1 [Compound 17, 3-[(E)-(3-nitrophenyl)methylidene]-1,3-dihydro-2H-indol-2-one] |  | < 50% | 
COc1ccccc1/C=C1/C(=O)Nc2ccccc21 [Compound 7, 3-[(E)-(2-methoxyphenyl)methylidene]-1,3-dihydro-2H-indol-2-one] |  | < 50% | IC50 (bovine, 9 days, pH 7.4): 194 to 455 µM
O=C1Nc2ccccc2/C1=C\c1ccc(Cl)c(Cl)c1 [Compound 12, 3-[(E)-(3,4-dichlorophenyl)methylidene]-1,3-dihydro-2H-indol-2-one] |  | < 50% | 
O=C1Nc2ccccc2/C1=C\c1ccccc1F [Compound 9, 3-[(E)-(2-fluorophenyl)methylidene]-1,3-dihydro-2H-indol-2-one] |  | < 50% | 
O=C1Nc2ccccc2/C1=C\c1ccc(O)cc1 [Compound 5, 3-[(E)-(4-hydroxyphenyl)methylidene]-1,3-dihydro-2H-indol-2-one] |  |  | inhibition at 1000 µM [1]: < 50%
C[C@@H]1O[C@@H](OC[C@H]2O[C@@H](Oc3c(-c4ccc(O)c(O)c4)oc4cc(O)cc(O)c4c3=O)[C@H](O)[C@@H](O)[C@@H]2O)[C@H](O)[C@H](O)[C@H]1O [Rutin, reference compound] |  |  | IC50 [4]: 294 µM
CSc1ccc(/C=C2/C(=O)Nc3ccccc32)cc1 [Compound 10, 3-[(E)-(4-methylsulfanylphenyl)methylidene]-1,3-dihydro-2H-indol-2-one] |  | < 50% | 
O=C1Nc2ccccc2/C1=C\c1cc(Cl)ccc1O [Compound 16, 3-[(E)-(5-chloro-2-hydroxyphenyl)methylidene]-1,3-dihydro-2H-indol-2-one] |  | < 50% | 
O=C1Nc2ccccc2/C1=C\c1ccccc1O [Compound 20, 3-[(E)-(2-hydroxyphenyl)methylidene]-1,3-dihydro-2H-indol-2-one] |  |  | IC50 [4]: 285 µM and 194 to 455 µM; activity against the protein glycation (in words): potent activity
O=C1Nc2ccccc2/C1=C\c1cccc(Cl)c1 [Compound 14, 3-[(E)-(3-chlorophenyl)methylidene]-1,3-dihydro-2H-indol-2-one] | 151 µM and 150 µM |  | activity against the protein glycation (in words): potent activity
O=C1Nc2ccccc2/C1=C\c1ccc(F)cc1 [Compound 8, 3-[(E)-(4-fluorophenyl)methylidene]-1,3-dihydro-2H-indol-2-one] | 211 ± 4.1 µM |  | activity against the protein glycation (in words): potent activity
O=C1Nc2ccccc2/C1=C\c1cccc2ccccc12 [Compound 2, 3-[(E)-1-naphthylmethylidene]-1,3-dihydro-2H-indol-2-one] |  | < 50% | IC50 (bovine, 9 days, pH 7.4): 194 to 455 µM
O=C1Nc2ccccc2/C1=C\c1ccc(Cc2ccccc2)cc1 [Compound 21, 3-[(E)-(4-benzylphenyl)methylidene]-1,3-dihydro-2H-indol-2-one] |  | < 50% | 
O=C1Nc2ccccc2/C1=C\c1c2ccccc2cc2ccccc12 [Compound 4, 3-[(E)-9-anthrylmethylidene]-1,3-dihydro-2H-indol-2-one] | 456 µM and 194 to 455 µM |  | 
O=C1Nc2ccccc2/C1=C\c1ccc(Cl)cc1Cl [Compound 18, 3-[(E)-(2,4-dichlorophenyl)methylidene]-1,3-dihydro-2H-indol-2-one] | 856.7 ± 2.4 µM |  | 
O=C1Nc2ccccc2/C1=C\c1cccc(O)c1 [Compound 1, 3-[(E)-(3-hydroxyphenyl)methylidene]-1,3-dihydro-2H-indol-2-one] |  |  | IC50 [4]: 282 µM and 194 to 455 µM; activity against the protein glycation (in words): potent activity
CCOc1cccc(/C=C2/C(=O)Nc3ccccc32)c1O [Compound 3, 3-[(E)-(3-ethoxy-2-hydroxyphenyl)methylidene]-1,3-dihydro-2H-indol-2-one] | 268 µM and 194 to 455 µM |  | activity against the protein glycation (in words): potent activity
COc1cccc(/C=C2/C(=O)Nc3ccccc32)c1O [Compound 11, 3-[(E)-(2-hydroxy-3-methoxyphenyl)methylidene]-1,3-dihydro-2H-indol-2-one] | 374 µM and 194 to 455 µM |  | 
